Laboratory results published in article PMC9551036, “A selective and orally bioavailable VHL-recruiting PROTAC achieves SMARCA2 degradation in vivo” (Nature Communications, 2022).
“And” between values parts separate entries of the source, which are not always exact repeats. Identical values can stand only once. Like-named read-outs stand apart in the source and are kept apart here.

What was measured:
VCB complex = target: T1, VCB complex (Homo sapiens, UniProt P40337); experiment: SPR binary binding to immobilised VCB complex
T1 construct: His6 (TEV site) (N, cleaved yes); made in house
Description: SMARCA4^BD was provided by the Structural Genomics Consortium (SGC), Toronto[32] and SMARCA2^BD and PRM1^BD5 were synthesised by GeneArt then subcloned into pDEST15 vectors (Invitrogen). The VCB complex was expressed and purified as described previously, with the modification that 0.3 mM IPTG was used for induction of expression. […] Both were stored in 20 mM 4-(2-hydroxyethyl)−1-piperazineethanesulfonic acid (HEPES), 150 mM sodium chloride and 1 mM tris(2-carboxyethyl)phosphine (TCEP) pH 7.5. SMARCA2^BD, SMARCA4^BD and PBRM1^BD5 were expressed in Escherichia coli BL21(DE3) as N-terminal GST fusion proteins with a TEV protease cleavage site. Expression and purification of these proteins has been described previously[32],[33]. Starter cultures were grown overnight at 37 °C in 10 mL of Luria-Bertani (LB) medium with ampicillin (100 μg/mL). The starter cultures were diluted (1:100) in Terrific Broth (TB) medium with ampicillin (100 μg/mL) and grown in a shaking incubator at 37 °C to an optical density (OD600) ~1 before the temperature was lowered for induction (to 23 °C for SMARCA2^BD or 18 °C for SMARCA4^BD and PRRM1^BD5). […] Cells were harvested by centrifugation and stored at −80 °C prior to purification. […] The Lysis buffers were as follows: for SMARCA2^BD: 50 mM HEPES, 500 mM sodium chloride, 5% glycerol, 5 mM dithiothreitol (DTT); for SMARCA4^BD: 25 mM HEPES, 0.3 M sodium chloride, 5% glycerol, 10 mM DTT, pH 7.5; for PBRM1^BD5: 25 mM HEPES, 300 mM sodium chloride, 5% glycerol, 10 mM DTT, pH 7.8; in each case supplemented with complete protease inhibitors (Roche). Affinity purification was performed using Glutathione Sepharose 4B (GE Healthcare) in batch mode or on-column. […] For SMARCA2^BD, prior to TEV protease cleavage the eluted GST-tagged BD was first dialysed into desalting buffer (20 mM HEPES, 250 mM sodium chloride, pH 7.0 + 0.5% glycerol). Where TEV cleavage was performed in solution, a second affinity (GST-trap) column purification step was carried out to remove the GST-tag and uncleaved GST-tagged protein. Proteins were further purified by SEC (HiLoad Superdex-75, 16/600) (GE Healthcare) and stored in Storage buffer (for SMARCA2^BD: 20 mM HEPES, 150 mM sodium chloride, pH 7.5; for SMARCA4^BD: 10 mM HEPES, 0.5 M NaCl, 5% glycerol, pH 7.5; for PBRM1^BD5: 20 mM HEPES, 300 mM NaCl, 5 mM DTT, pH 7.8). For AlphaScreen assays, eluted GST-tagged BDs were purified directly by SEC in the respective storage buffers without TEV cleavage. All chromatography purification steps were performed either at room temperature or 4 °C using an ÄKTA FPLC purification system (GE Healthcare) or a plastic Econo-Pac column (Bio-Rad).
SPR data were acquired on Biacore 8K or T200 instruments (Cytiva). Target proteins were immobilised at 25 °C on CM5 chips by amine coupling (EDC/NHS, Cytiva) in HBS-P+ running buffer (pH 7.4), containing 2 mM TCEP. […] The reference surface was subsequently deactivated using 1 M ethanolamine. […] Biotinylated VCB was prepared as previously described[27]: in brief, the complex was mixed 1:1 with EZ-Link NHS–PEG4–biotin (Thermo Scientific) and incubated at room temperature for 1 h. Unreacted NHS-biotin was removed using a PD-10 desalting column (Cytiva) into 20 mM HEPES, pH 7.5, 150 mM sodium chloride and 1 mM DTT. The reference surface was generated by deactivating the EDC/NHS-treated surface with 1 M ethanolamine. All interaction experiments were done at 6 °C in running buffer (20 mM TRIS, pH 8.3, 150 mM potassium chloride, 2 mM magnesium chloride, 2 mM TCEP, 0.005% TWEEN 20, 1% dimethyl sulfoxide). For ternary complex measurements, a sensor chip surface with VCB immobilised was used (preparation as described above). Experiments were run in dual-inject mode with 10 µM SMARCA present during the injection and dissociation phase. Sensorgrams from reference surfaces and blank injections were subtracted from the raw data prior to data analysis using Biacore Insight software.

[1] = Bidirectional permeability measurement in Caco-2 cells; format: in vitro ADME; conditions: human
Procedure, shortened: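 Compound quantified by LC-MS/MS in samples taken over up to 2 h across 14–21-day Caco-2 monolayers, after 24 h preincubation with 1 µM compound. Runs done without and with 5 µM zosuquidar to probe P-gp. Efflux ratio is the quotient of duplicate-mean Papp,BA over Papp,AB.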

[2] = binary binding to VCB, mean ± SD
[3] = Caco-2, pH 7.4, Caco-2, read-out: Caco-2 Pab
[4] = Caco-2, pH 7.4, Modified Caco-2, read-out: Modified Caco-2 Pab
[5] = Caco-2, pH 7.4, Caco-2, b to a, read-out: Caco-2 Pba
[6] = Caco-2, pH 7.4, Caco-2, read-out: Caco-2 Efflux ratio
[7] = Caco-2, pH 7.4, Modified Caco-2, b to a, read-out: Modified Caco-2 Pba
[8] = Caco-2, pH 7.4, Modified Caco-2, read-out: Modified Caco-2 Efflux ratio

T1 sequence (P40337 54-213): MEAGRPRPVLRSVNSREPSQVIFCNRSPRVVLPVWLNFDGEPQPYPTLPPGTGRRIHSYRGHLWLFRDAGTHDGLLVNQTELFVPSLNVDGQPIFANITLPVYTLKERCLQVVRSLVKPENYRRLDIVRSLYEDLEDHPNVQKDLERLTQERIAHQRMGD
T1 sequence (Q15369 17-112 partner limits assumed): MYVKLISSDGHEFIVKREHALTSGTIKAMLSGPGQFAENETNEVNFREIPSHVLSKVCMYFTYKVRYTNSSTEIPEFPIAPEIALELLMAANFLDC
T1 sequence (Q15370 1-104 partner limits assumed): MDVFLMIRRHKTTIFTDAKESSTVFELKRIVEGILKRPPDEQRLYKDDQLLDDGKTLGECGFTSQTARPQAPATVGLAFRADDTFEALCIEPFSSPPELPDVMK

SMILES | Kd (VCB complex; [2]) [nM] | Papp A→B at 1 µM [1, 3] [×10⁻⁶ cm/s] | Papp B→A at 1 µM [1, 5] [×10⁻⁶ cm/s] | Kd (VCB complex; binary, individual replicates) | further results
Cc1ncsc1-c1ccc(C(CCC(C)CCN2CCC(c3ccc4c(c3)n(C3CCCC3)c3nc(=O)c5c(Br)cccc5n43)CC2)NC(=O)C2CC(O)CN2C(=O)C(NC(=O)C2(F)CC2)C(C)(C)C)cc1 (centres unmarked) [ACBI2] | 28 ± 35 | 2 ± 0.2 | – | – | Papp A→B at 1 µM [1, 4]: 9 ± 9 ×10⁻⁶ cm/s
O=c1nc2n(C3CCCC3)c3ccccc3n2c2cccc(Br)c12 [compound 1] | – | 31 | 23.9 | – | efflux ratio at 2 h, 1 µM [1, 6]: 0.774
Nc1cccc2c1c(=O)nc1n(C3CCCC3)c3ccccc3n21 [compound 2] | – | 37 | 17 | – | efflux ratio at 2 h, 1 µM [1, 6]: 0.459
CN1CCC(c2ccc3c(c2)n(C2CCCC2)c2nc(=O)c4c(Br)cccc4n32)CC1 [compound 3] | – | 28 | 21.7 | – | efflux ratio at 2 h, 1 µM [1, 6]: 0.768
Cc1ncsc1-c1ccc([C@H](COC(C)CN2CCC(c3ccc4c(c3)n(C3CCCC3)c3nc(=O)c5c(Br)cccc5n43)CC2)NC(=O)[C@@H]2C[C@@H](O)CN2C(=O)[C@@H](NC(=O)C2(F)CC2)C(C)(C)C)cc1 (some centres unmarked) [compound 9] | 34 ± 6 | 6 ± 2 | 34 | 39.9 nM and 37.9 nM and 30.4 nM and 26.2 nM | Papp B→A at 1 µM [1, 7]: 170 ×10⁻⁶ cm/s; efflux ratio at 2 h, 1 µM [1, 8]: 44.8; Papp A→B at 1 µM [1, 4]: 4 ± 2 ×10⁻⁶ cm/s
Cc1ncsc1-c1ccc([C@H](COC(C)CN2CCC(c3ccc4c(c3)n(C3CCCC3)c3nc(=O)c5c(Br)cccc5n43)CC2)NC(=O)[C@@H]2C[C@@H](O)CN2C(=O)[C@@H](NC(=O)C2(N(C)C)CC2)C(C)(C)C)cc1 (some centres unmarked) [compound 10] | 124 ± 97 | – | 26 | 76.7 nM and 269 nM and 65.4 nM and 86 nM | efflux ratio at 2 h, 1 µM [1, 6]: 4.64; Papp B→A at 1 µM [1, 7]: 69 ×10⁻⁶ cm/s; efflux ratio at 2 h, 1 µM [1, 8]: 36.3; Papp A→B at 1 µM [1, 4]: < 1 ×10⁻⁶ cm/s
Cc1ncsc1-c1ccc([C@H](CCCCCN2CCC(c3ccc4c(c3)n(C3CCCC3)c3nc(=O)c5c(Br)cccc5n43)CC2)NC(=O)[C@@H]2C[C@@H](O)CN2C(=O)[C@@H](NC(=O)C2(F)CC2)C(C)(C)C)cc1 [compound 11] | 9 ± 3 | 1.4 ± 0.5 | – | 11.2 nM and 11.4 nM and 9.47 nM and 7.94 nM and 8.34 nM and 7.19 nM and 5.73 nM and 11.9 nM and 4.42 nM | Papp A→B at 1 µM [1, 4]: 6 ± 3 ×10⁻⁶ cm/s
Cc1ncsc1-c1ccc([C@H](CC[C@H](C)CCN2CCC(c3ccc4c(c3)n(C3CCCC3)c3nc(=O)c5c(Br)cccc5n43)CC2)NC(=O)[C@@H]2C[C@H](O)CN2C(=O)[C@@H](NC(=O)C2(F)CC2)C(C)(C)C)cc1 [compound 12] | 629 ± 88 | – | 8.5 | 566 nM and 691 nM | Papp A→B at 1 µM ([1]; Caco-2, pH 7.4, Caco-2, a to b, read-out: Caco-2 Pab): 3.4 ×10⁻⁶ cm/s
Cc1ncsc1-c1ccc(CNC(=O)[C@@H]2C[C@@H](O)CN2C(=O)[C@@H](NC(=O)C2(F)CC2)C(C)(C)C)c(OCCN2CCC(c3ccc4c(c3)n(C3CCCC3)c3nc(=O)c5c(Br)cccc5n43)CC2)c1 [compound 20] | 9 ± 7 | – | – | 6.64 nM and 20.3 nM and 5.1 nM and 5.19 nM | –
Cc1ncsc1-c1ccc(CNC(=O)[C@@H]2C[C@@H](O)CN2C(=O)[C@@H](NC(=O)C2(F)CC2)C(C)(C)C)c(OCCOCCOCCN2CCC(c3ccc4c(c3)n(C3CCCC3)c3nc(=O)c5c(Br)cccc5n43)CC2)c1 [compound 21] | 21 ± 5 | – | – | 19.9 nM and 27 nM and 21.6 nM and 15.2 nM | –
Cc1ncsc1-c1ccc(CNC(=O)[C@@H]2C[C@@H](O)CN2C(=O)[C@@H](NC(=O)C2(F)CC2)C(C)(C)C)c(OCCOCCOCCOCCN2CCC(c3ccc4c(c3)n(C3CCCC3)c3nc(=O)c5c(Br)cccc5n43)CC2)c1 [compound 22] | 39 ± 16 | – | – | 31.8 nM and 62.9 nM and 29.3 nM and 33 nM | –
Cc1ncsc1-c1ccc(CNC(=O)[C@@H]2C[C@@H](O)CN2C(=O)[C@@H](NC(=O)C2(F)CC2)C(C)(C)C)c(OCCCCN2CCC(c3ccc4c(c3)n(C3CCCC3)c3nc(=O)c5c(Br)cccc5n43)CC2)c1 [compound 23] | 16 ± 8 | – | – | 11.5 nM and 28.1 nM and 12.3 nM and 10.9 nM | –
Cc1ncsc1-c1ccc([C@H](CCCCN2CCC(c3ccc4c(c3)n(C3CCCC3)c3nc(=O)c5c(Br)cccc5n43)CC2)NC(=O)[C@@H]2C[C@@H](O)CN2C(=O)[C@@H](NC(=O)C2(F)CC2)C(C)(C)C)cc1 [compound 25] | 6 ± 1 | – | – | 6.94 nM and 6.43 nM and 5.3 nM | –
Cc1ncsc1-c1ccc([C@H](COCCN2CCC(c3ccc4c(c3)n(C3CCCC3)c3nc(=O)c5c(Br)cccc5n43)CC2)NC(=O)[C@@H]2C[C@@H](O)CN2C(=O)[C@@H](NC(=O)C2(N(C)C)CC2)C(C)(C)C)cc1 [compound 26] | 76 ± 46 | < 3 | 15.4 | 55.5 nM and 144 nM and 50.1 nM and 53.4 nM | –
Cc1ncsc1-c1ccc([C@H](COCCCN2CCC(c3ccc4c(c3)n(C3CCCC3)c3nc(=O)c5c(Br)cccc5n43)CC2)NC(=O)[C@@H]2C[C@@H](O)CN2C(=O)[C@@H](NC(=O)C2(F)CC2)C(C)(C)C)cc1 [compound 27] | 12 ± 9 | – | – | 8.51 nM and 25.4 nM and 6.56 nM and 9 nM | –
Cc1ncsc1-c1ccc([C@H](COC(C)(C)CN2CCC(c3ccc4c(c3)n(C3CCCC3)c3nc(=O)c5c(Br)cccc5n43)CC2)NC(=O)[C@@H]2C[C@@H](O)CN2C(=O)[C@@H](NC(=O)C2(F)CC2)C(C)(C)C)cc1 [compound 28] | 55 ± 29 | – | – | 50.4 nM and 131 nM and 47.1 nM and 49.5 nM and 39.6 nM and 49.4 nM and 39.8 nM and 43.6 nM and 44.9 nM | –
Cc1ncsc1-c1ccc([C@H](CC[C@@H](C)CCN2CCC(c3ccc4c(c3)n(C3CCCC3)c3nc(=O)c5c(Br)cccc5n43)CC2)NC(=O)[C@@H]2C[C@@H](O)CN2C(=O)[C@@H](NC(=O)C2(F)CC2)C(C)(C)C)cc1 [compound 29] | 13 ± 7 | – | – | 21.3 nM and 18.2 nM and 7.09 nM and 8.27 nM and 5.72 nM and 14.8 nM | –
Cc1ncsc1-c1ccc([C@H](CCC(C)(C)CCN2CCC(c3ccc4c(c3)n(C3CCCC3)c3nc(=O)c5c(Br)cccc5n43)CC2)NC(=O)[C@@H]2C[C@@H](O)CN2C(=O)[C@@H](NC(=O)C2(F)CC2)C(C)(C)C)cc1 [compound 30] | 29 ± 8 | – | – | 38.3 nM and 25.5 nM and 32.6 nM and 21 nM | –
